Measurements as given in ChEMBL document CHEMBL1150171, “DNA-damaging agents from Crypteronia paniculata” (J Nat Prod, 2002).
Active and inactive are the calls of the source. No cut-off for these calls is given here.

Experiments:
Saccharomyces cerevisiae [1] = assay: DNA damaging activity against RAD52 transformed Saccharomyces cerevisiae in glucose minimal medium after 41 hrs; type: functional, organism-based
Saccharomyces cerevisiae [2] = assay: DNA damaging activity against RAD52 transformed Saccharomyces cerevisiae in galactose minimal medium after 41 hrs; type: functional, organism-based
Saccharomyces cerevisiae [3] = assay: DNA damaging activity against YCp50 transformed Saccharomyces cerevisiae in galactose minimal medium after 41 hrs
Nucleic Acid [4] = assay: Induction of DNA cleavage assessed as relaxation of supercoiled plasmid DNA at > 1 mM by cell free assay; type: nucleic-acid assay
Nucleic Acid [5] = assay: Induction of DNA cleavage assessed as relaxation of supercoiled plasmid DNA at > 1 mM in presence of Cu2+ by cell free assay; type: nucleic-acid assay

| Compound | IC50 (Saccharomyces cerevisiae [1]) [µM] | IC50 (Saccharomyces cerevisiae [2]) [µM] | IC50 (Saccharomyces cerevisiae [3]) [µM] | Activity (Nucleic Acid [4]) | Activity (Nucleic Acid [5]) |
| --- | --- | --- | --- | --- | --- |
| COc1c(O)cc2c(=O)oc3c(OC)c(O[C@@H]4OC[C@@H](O)[C@H](O)[C@H]4O)cc4c(=O)oc1c2c34 | 3.1 | > 1000 | 23.1 |  |  |
| COc1c(O[C@@H]2O[C@H](CO)[C@@H](O)[C@H](O)[C@H]2O)cc2c(=O)oc3c4c(cc5c(=O)oc1c2c35)OCO4 [NYSSOSIDE] | 1.12 | 14.4 | 0.341 |  |  |
| C[C@@H]1O[C@@H](Oc2c(-c3ccc(O)cc3)oc3cc(O)cc(O)c3c2=O)[C@H](O)[C@H](O)[C@H]1O [AFZELIN] | 7.4 | > 1000 | 9.3 | inactive | inactive |
